As usually defined, the IC50 is the midpoint of a concentration-inhibition curve. The low end stands for greater potency, the high end for weaker potency.

Molecules are shown by their SMILES. *1 amine or outer side, *2 acyl side, *3 side chain or, on linkers, in order; H or OH if unused. Where a SMILES comes first, the peptide text is derived from it. [ ]: non-standard residue; d: D form. The star is where a group is joined. ξ: configuration not given here. X1 = O=C(Cc1ccc(N[*:1])cc1)[*:2]; Ile(3ξ) = CCC(C)[C@H](N)C(=O)O; X4 = O=C(Cc1ccccc1N[*:1])[*:2]; NH(2-Me-phenyl) = Cc1ccccc1N*; β3hP = O=C(O)C[C@@H]1CCCN1; β3hD = NC(CC(=O)O)CC(=O)O; Nle = CCCC[C@H](N)C(=O)O; Abu = CC[C@H](N)C(=O)O; Dap = NC[C@H](N)C(=O)O; Ac3c = NC1(C(=O)O)CC1; Aib = CC(C)(N)C(=O)O; CO = O=C([*:1])[*:2]; Butyryl = CCCC(=O)*; X10 = Brc1ccccc1N*

The target in the first assay is Integrin alpha-4/beta-1 (Homo sapiens, UniProt P05556+P13612, T112H). In words: Jurkat Cell Adhesion Inhibition Assay.
Settings: not given
How it is done: Binding affinities (IC50) of the ligands were studied in a Jurkat cell adhesion assay by inhibiting the alpha-4/beta-1 mediated cell adhesion to CS-1 peptides. The 96-well plates were coated with neutravidin, followed by biotinconjugated CS-1 peptides. Jurkat cells with series dilutions of tested ligands in binding buffer were added and allowed to bind for 30 min. Bound cells were recorded using a 96-well plate reader at 570 nm. IC50 values were calculated from inhibition curves resulting from the concentration-dependent inhibition
`CCCC[C@H](NC(=O)Cc1ccc(NC(=O)Nc2ccccc2C)cc1)C(=O)N[C@@H](CC(=O)O)CC(=O)N[C@H](C(=O)N1CCC[C@H]1C(N)=O)C(C)CC` (stereo partly drawn) [(3R)-4-{[(2S,3R)-1-[(2S)-2-carbamoylpyrrolidin-1-yl]-3-methyl-1-oxopentan-2-yl]carbamoyl}-3-[(2S)-2-[1-(4-{[(2-methylphenyl)carbamoyl]amino}phenyl)acetamido]hexanamido]butanoic acid] ({NH(2-Me-phenyl)-CO}-[X1][Nle][β3hD][Ile(3ξ)]P-NH2) gave an IC50 of 4 nM. The molecule `CCCC[C@H](NC(=O)Cc1ccc(NC(=O)Nc2ccccc2C)cc1)C(=O)N[C@@H](CC(=O)O)C(=O)NC(C)(C)C(=O)N1CCC[C@H]1C(N)=O` [(3S)-3-({1-[(2S)-2-carbamoylpyrrolidin-1-yl]-2-methyl-1-oxopropan-2-yl}carbamoyl)-3-[(2S)-2-[1-(4-{[(2-methylphenyl)carbamoyl]amino}phenyl)acetamido]hexanamido]propanoic acid] ({NH(2-Me-phenyl)-CO}-[X1][Nle]D[Aib]P-NH2) had an IC50 of 13 nM. On to `CCCC[C@H](NC(=O)Cc1ccc(NC(=O)Nc2ccccc2C)cc1)C(=O)N[C@@H](CC(=O)O)C(=O)NC1(C(=O)N2CCC[C@H]2C(N)=O)CC1` [(3S)-3-[(1-{[(2S)-2-carbamoylpyrrolidin-1-yl]carbonyl}cyclopropyl)carbamoyl]-3-[(2S)-2-[1-(4-{[(2-methylphenyl)carbamoyl]amino}phenyl)acetamido]hexanamido]propanoic acid] ({NH(2-Me-phenyl)-CO}-[X1][Nle]D[Ac3c]P-NH2), for which 9.2 nM corresponded to half-maximal inhibition (IC50). The molecule `CCCC[C@H](NC(=O)Cc1ccc(NC(=O)Nc2ccccc2Br)cc1)C(=O)N[C@@H](CC(=O)O)C(=O)N[C@H](C(=O)N1CCC[C@H]1C(N)=O)C(C)CC` (stereo partly drawn) [(3S)-3-[(2S)-2-[1-(4-{[(2-bromophenyl)carbamoyl]amino}phenyl)acetamido]hexanamido]-3-{[(2S,3S)-1-[(2S)-2-carbamoylpyrrolidin-1-yl]-3-methyl-1-oxopentan-2-yl]carbamoyl}propanoic acid] ({X10-CO}-[X1][Nle]D[Ile(3ξ)]P-NH2) showed a half-inhibitory concentration (IC50) of 4.8 nM. `CCCC(=O)NC[C@H](NC(=O)Cc1ccc(NC(=O)Nc2ccccc2C)cc1)C(=O)N[C@@H](CC(=O)O)C(=O)N[C@H](C(=O)N1CCC[C@H]1C(N)=O)C(C)CC` (stereo partly drawn) [(3S)-3-[(2S)-3-butanamido-2-[1-(4-{[(2-methylphenyl)carbamoyl]amino}phenyl)acetamido]propanamido]-3-{[(2S,3S)-1-[(2S)-2-carbamoylpyrrolidin-1-yl]-3-methyl-1-oxopentan-2-yl]carbamoyl}propanoic acid] ({NH(2-Me-phenyl)-CO}-[X1][Dap](Butyryl)D[Ile(3ξ)]P-NH2) had an IC50 of 138 nM. `CCCC[C@H](NC(=O)Cc1ccc(NC(=O)Nc2ccccc2C)cc1)C(=O)N[C@@H](CC(=O)O)C(=O)N[C@@H](CC)C(=O)N1CCC[C@H]1C(N)=O` [(3S)-3-{[(2S)-1-[(2S)-2-carbamoylpyrrolidin-1-yl]-1-oxobutan-2-yl]carbamoyl}-3-[(2S)-2-[1-(4-{[(2-methylphenyl)carbamoyl]amino}phenyl)acetamido]hexanamido]propanoic acid] ({NH(2-Me-phenyl)-CO}-[X1][Nle]D[Abu]P-NH2): the IC50 worked out at 2.9 nM. The molecule `CCCC[C@H](NC(=O)Cc1ccc(NC(=O)Nc2ccccc2C)cc1)C(=O)N[C@@H](CC(=O)O)C(=O)N[C@H](C(=O)N1CCC[C@H]1C(N)=O)C(C)C` [(3S)-3-{[(2S)-1-[(2S)-2-carbamoylpyrrolidin-1-yl]-3-methyl-1-oxobutan-2-yl]carbamoyl}-3-[(2S)-2-[1-(4-{[(2-methylphenyl)carbamoyl]amino}phenyl)acetamido]hexanamido]propanoic acid] ({NH(2-Me-phenyl)-CO}-[X1][Nle]DVP-NH2) displayed a half-inhibitory concentration (IC50) of 0.6 nM.

Regarding `CCCC[C@H](NC(=O)Cc1ccccc1NC(=O)Nc1ccccc1C)C(=O)N[C@@H](CC(=O)O)C(=O)N[C@H](C(=O)N1CCC[C@H]1C(N)=O)C(C)CC` (stereo partly drawn) [(3S)-3-{[(2S,3S)-1-[(2S)-2-carbamoylpyrrolidin-1-yl]-3-methyl-1-oxopentan-2-yl]carbamoyl}-3-[(2S)-2-[1-(2-{[(2-methylphenyl)carbamoyl]amino}phenyl)acetamido]hexanamido]propanoic acid] ({NH(2-Me-phenyl)-CO}-[X4][Nle]D[Ile(3ξ)]P-NH2), the IC50 is 3000 nM. Compared with the last molecule, the IC50 is about 5000-fold higher.

Staying with this assay, now noted: pH 7.5; 22 °C.
For the molecule `CCCC[C@H](NC(=O)Cc1ccc(NC(=O)Nc2ccccc2C)cc1)C(=O)N[C@@H](CC(=O)O)C(=O)N[C@H](C(=O)NC1CCCC1C(N)=O)C(C)CC` (stereo partly drawn) [(3S)-3-{[(1S,2S)-1-[(2-carbamoylcyclopentyl)carbamoyl]-2-methylbutyl]carbamoyl}-3-[(2S)-2-[1-(4-{[(2-methylphenyl)carbamoyl]amino}phenyl)acetamido]hexanamido]propanoic acid], it took 3.4 nM to reach half-maximal inhibition (IC50). As to `CCCC[C@H](NC(=O)Cc1ccc(NC(=O)Nc2ccccc2C)cc1)C(=O)N[C@@H](CC(=O)O)C(=O)N[C@H](C(=O)Nc1cccc(C(N)=O)c1)C(C)CC` (stereo partly drawn) [(3S)-3-{[(1S,2S)-1-[(3-carbamoylphenyl)carbamoyl]-2-methylbutyl]carbamoyl}-3-[(2S)-2-[1-(4-{[(2-methylphenyl)carbamoyl]amino}phenyl)acetamido]hexanamido]propanoic acid], inhibition was half-maximal at 3.3 nM (IC50). The IC50 values of the last two molecules are within 1.5-fold of each other. With `CCCC[C@H](NC(=O)Cc1ccc(NC(=O)Nc2ccccc2C)cc1)C(=O)N[C@@H](CC(=O)O)C(=O)N[C@H](C(=O)NC1CC[C@@H]2SC[C@@H](C(N)=O)N2C1=O)[C@@H](C)CC` (stereo partly drawn) [(3S)-3-{[(1S,2S)-1-{[(3R,8aS)-3-carbamoyl-5-oxo-hexahydro-2H-pyrido[2,1-b][1,3]thiazol-6-yl]carbamoyl}-2-methylbutyl]carbamoyl}-3-[(2S)-2-[1-(4-{[(2-methylphenyl)carbamoyl]amino}phenyl)acetamido]hexanamido]propanoic acid], inhibition was half-maximal at 3.4 nM (IC50). On the same count and under the same terms, with `CCCC[C@H](NC(=O)Cc1ccc(NC(=O)Nc2ccccc2C)cc1)C(=O)N[C@@H](CC(=O)O)C(=O)N[C@H](C(=O)N1CCCC(C(N)=O)C1)C(C)CC` (stereo partly drawn) [(3S)-3-{[(2S,3S)-1-(3-carbamoylpiperidin-1-yl)-3-methyl-1-oxopentan-2-yl]carbamoyl}-3-[(2S)-2-[1-(4-{[(2-methylphenyl)carbamoyl]amino}phenyl)acetamido]hexanamido]propanoic acid] the figure was 4 nM; with `CCCC[C@H](NC(=O)Cc1ccc(NC(=O)Nc2ccccc2C)cc1)C(=O)N[C@@H](CC(=O)O)C(=O)N[C@H](C(=O)N1CCC(C(N)=O)CC1)C(C)CC` (stereo partly drawn) [(3S)-3-{[(2S,3S)-1-(4-carbamoylpiperidin-1-yl)-3-methyl-1-oxopentan-2-yl]carbamoyl}-3-[(2S)-2-[1-(4-{[(2-methylphenyl)carbamoyl]amino}phenyl)acetamido]hexanamido]propanoic acid], 3.3 nM. On to `CCCC[C@H](NC(=O)Cc1ccc(NC(=O)Nc2ccccc2C)cc1)C(=O)N[C@@H](CC(=O)O)C(=O)N[C@H](C(=O)N1CCC2(CC1)C(=O)N(CC(N)=O)CN2c1ccccc1)C(C)CC` (stereo partly drawn) [(3S)-3-{[(2S,3S)-1-[3-(carbamoylmethyl)-4-oxo-1-phenyl-1,3,8-triazaspiro[4.5]decan-8-yl]-3-methyl-1-oxopentan-2-yl]carbamoyl}-3-[(2S)-2-[1-(4-{[(2-methylphenyl)carbamoyl]amino}phenyl)acetamido]hexanamido]propanoic acid], for which half-maximal inhibition (IC50) required 29 nM. Against the preceding molecule, the IC50 is about 8.8-fold higher. `CCCC[C@H](NC(=O)Cc1ccc(NC(=O)Nc2ccccc2C)cc1)C(=O)N[C@@H](CC(=O)O)C(=O)N[C@H](C(=O)N1CCCC[C@@H]1C(N)=O)C(C)CC` (stereo partly drawn) [(3S)-3-{[(2S,3S)-1-[(2R)-2-carbamoylpiperidin-1-yl]-3-methyl-1-oxopentan-2-yl]carbamoyl}-3-[(2S)-2-[1-(4-{[(2-methylphenyl)carbamoyl]amino}phenyl)acetamido]hexanamido]propanoic acid] came in with an IC50 of 3 nM. `CCCC[C@H](NC(=O)Cc1ccc(NC(=O)Nc2ccccc2C)cc1)C(=O)N[C@@H](CC(=O)O)C(=O)N[C@H](C(=O)N1CCC[C@@H]1C(N)=O)C(C)CC` (stereo partly drawn) [(3S)-3-{[(2S,3S)-1-[(2R)-2-carbamoylpyrrolidin-1-yl]-3-methyl-1-oxopentan-2-yl]carbamoyl}-3-[(2S)-2-[1-(4-{[(2-methylphenyl)carbamoyl]amino}phenyl)acetamido]hexanamido]propanoic acid]: the IC50 was determined as 2.9 nM. This IC50 and that of the molecule before are within 1.5-fold of each other. On the same count and under the same terms, with `CCCC[C@H](NC(=O)Cc1ccc(NC(=O)Nc2ccccc2C)cc1)C(=O)N[C@@H](CC(=O)O)C(=O)N[C@H](C(=O)N1CCC[C@H]1CC(N)=O)C(C)CC` (stereo partly drawn) [(3S)-3-{[(2S,3S)-1-[(2S)-2-(carbamoylmethyl)pyrrolidin-1-yl]-3-methyl-1-oxopentan-2-yl]carbamoyl}-3-[(2S)-2-[1-(4-{[(2-methylphenyl)carbamoyl]amino}phenyl)acetamido]hexanamido]propanoic acid] ({NH(2-Me-phenyl)-CO}-[X1][Nle]D[Ile(3ξ)][β3hP]-NH2) the figure was 3.1 nM. Same read-out and setting: with `CCCC[C@H](NC(=O)Cc1ccc(NC(=O)Nc2ccccc2C)cc1)C(=O)N[C@@H](CC(=O)O)C(=O)N[C@H](C(=O)N1CC(O)C[C@H]1C(N)=O)C(C)CC` (stereo partly drawn) [(3S)-3-{[(2S,3S)-1-[(2S)-2-carbamoyl-4-hydroxypyrrolidin-1-yl]-3-methyl-1-oxopentan-2-yl]carbamoyl}-3-[(2S)-2-[1-(4-{[(2-methylphenyl)carbamoyl]amino}phenyl)acetamido]hexanamido]propanoic acid] the figure was 3 nM; with `CCCC[C@H](NC(=O)Cc1ccc(NC(=O)Nc2ccccc2C)cc1)C(=O)N[C@@H](CC(=O)O)C(=O)N[C@H](C(=O)N1CCCC[C@H]1C(N)=O)C(C)CC` (stereo partly drawn) [(3S)-3-{[(2S,3S)-1-[(2S)-2-carbamoylpiperidin-1-yl]-3-methyl-1-oxopentan-2-yl]carbamoyl}-3-[(2S)-2-[1-(4-{[(2-methylphenyl)carbamoyl]amino}phenyl)acetamido]hexanamido]propanoic acid], 1.4 nM.

Source of the values: BindingDB's records for doi:10.1002/bip.20588 (University of California Davis, 2006).
